Measured values taken from patent publication US20240384268A1, “Oligonucleotides” (Hudson Institute of Medical Research, priority 2021, published 2024).
In the oligonucleotide strings, read from the 5' end, every base follows the letter of its sugar. An asterisk marks phosphorothioate; unmarked linkages are phosphodiester. Other units and linkages are bracketed, terminal groups are in braces. A string of capitals states the bases alone. d = 2'-deoxy (DNA); m = 2'-O-methyl

Biological target: T1, human TLR7 (Homo sapiens, UniProt Q9NYK1)
T1 construct: HA; host or cells: 293XL-hTLR7-HA (HEK293)
T1 sequence (Q9NYK1 27-1049): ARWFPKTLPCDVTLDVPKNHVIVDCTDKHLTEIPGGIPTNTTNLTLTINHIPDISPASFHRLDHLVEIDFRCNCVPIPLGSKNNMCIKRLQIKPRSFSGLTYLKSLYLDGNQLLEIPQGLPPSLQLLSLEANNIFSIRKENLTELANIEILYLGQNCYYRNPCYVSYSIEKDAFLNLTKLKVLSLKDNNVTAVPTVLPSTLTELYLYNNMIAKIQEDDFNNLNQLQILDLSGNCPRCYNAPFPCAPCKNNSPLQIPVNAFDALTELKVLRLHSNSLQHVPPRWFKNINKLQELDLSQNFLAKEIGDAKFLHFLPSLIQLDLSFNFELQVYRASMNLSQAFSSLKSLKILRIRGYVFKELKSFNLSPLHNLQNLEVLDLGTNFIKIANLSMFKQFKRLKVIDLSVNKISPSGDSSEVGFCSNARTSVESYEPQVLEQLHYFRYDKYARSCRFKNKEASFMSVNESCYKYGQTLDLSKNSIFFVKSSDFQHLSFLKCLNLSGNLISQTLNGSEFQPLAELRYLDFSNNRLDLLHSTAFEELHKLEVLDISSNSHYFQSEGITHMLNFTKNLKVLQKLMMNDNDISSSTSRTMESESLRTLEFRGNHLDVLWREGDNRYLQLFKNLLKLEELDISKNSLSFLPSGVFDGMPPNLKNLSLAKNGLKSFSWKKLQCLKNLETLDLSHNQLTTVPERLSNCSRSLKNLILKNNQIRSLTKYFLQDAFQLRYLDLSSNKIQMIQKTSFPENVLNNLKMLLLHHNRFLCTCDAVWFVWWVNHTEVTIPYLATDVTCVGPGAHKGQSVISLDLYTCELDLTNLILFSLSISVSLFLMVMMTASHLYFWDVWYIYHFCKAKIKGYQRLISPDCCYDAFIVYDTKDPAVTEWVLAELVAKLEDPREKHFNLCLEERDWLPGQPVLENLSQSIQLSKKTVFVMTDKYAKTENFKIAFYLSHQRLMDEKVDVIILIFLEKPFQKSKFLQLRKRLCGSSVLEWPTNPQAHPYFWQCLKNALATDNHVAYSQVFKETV
Assay: HEK-TLR7 NF-κB-luciferase reporter, R848 stimulation
Format: cell-based
Conditions: for TLR7 400 nM: 3mer 2'OMe ASO at 400 nM; for TLR7 400 nM / TLR7 2 uM: value relative to Ligand only = 1.000, NT = 0.000; for TLR7 2 uM: 3mer 2'OMe ASO at 2 uM; for TLR7 100 nM (averaged NF-κB-Luciferase level relative to R848 condition): ASO 100 nM; for TLR7 100 nM (averaged NF-κB-Luciferase level relative to R848 condition) / TLR7 500 nM (averaged NF-κB-Luciferase level relative to R848 condition): relative to R848 only, given as fraction; for TLR7 500 nM (averaged NF-κB-Luciferase level relative to R848 condition): ASO 500 nM
Method: In such examples, inhibition of TLR7 activity can be identified by observation of an overall decreased TLR7 response of the cell population, or a lower proportion of cells having TLR7-positive activity as compared to positive control condition in which cells are treated with TLR7 agonist in the absence of the oligonucleotide (or in the presence of an appropriate control inhibitory agent). In one example, 293XLhTLR7 (referred to as HEK-TLR7) cells are transfected with pNF-κB-Luc4 reporter, incubated with an oligonucleotide, and then stimulated with R848. TLR7 activity can be determined by a luciferase assay, which measures activated NF-κB by luminescence. TLR7 activity can also be analysed by measuring cytokine levels, for example by ELISA. […] TLR7 activity may then be assessed by the gene or protein expression of TLR7-responsive genes, such as Tnfα and Oas3.
For cGAS stimulations, cells were treated for indicated duration with ASOs, prior to transfection with ISD70 (human cells) or ISD45 (mouse cells) (the ASOs were not washed off prior to ISD transfection unless otherwise indicated). The cGAS ligands ISD45 (Stetson and Medzhitov, 2006) and ISD70 (also known as VACV-70 (Unterholzner et al., 2010)) (Table 1) were resuspended as follows: 5 1d of sense and 5 μl of antisense strands at 10 μg/μl were added to 90 μl PBS under sterile conditions, heated at 75° C. for 30 min, prior to letting cool down at room temperature and aliquoting (stock at 1 μg/1 l). The ISDs were transfected at a concentration of […] at a ratio of 1 μg:1 μl with Lipofectamine 2000 in Opti-MEM (Thermo Fisher Scientific). HEK-TLR3, HEK-TLR7 and […] were treated with indicated concentration of ASOs for 20-50 min, prior to stimulation with poly(I:C) (Invivogen), R848 (Invivogen), Motolimod (MedChemExpress) and the Class B CpG oligonucleotides ODN 2006 (synthesised by IDT and resuspended in RNase-free TE buffer [Table 1]), respectively. The TLR2/1 agonist PAM3CSK4 (Invivogen), the TLR4 agonist lipopolysaccharide (Invivogen), the Class B CpG oligonucleotides ODN 1826 (synthesised by IDT and resuspended in RNase-free TE buffer), the mouse Sting agonist DMXAA (Cayman) and the human STING agonist (compound #3 from (Raanjulu et al., 2018), referred to as GSK herein—kind gift from Cancer Therapeutics CRC, Australia) were used at indicated concentrations. Aspirin (Sigma—A2093) was resuspended in pure medium to 10 mM, filter sterilised and added to the cells at 2 mM final. All ASOs were synthesised by Integrated DNA Technologies (IDT), and resuspended in RNase-free TE buffer, pH 8.0 (Thermo Fisher Scientific). Cell viability was assessed by adding 1× fresh resazurin solution to the wells (10λ solution made up with 7 mg resazurin [Sigma—R7017] dissolved in 3.5 ml PBS, sterile filtered at […]) for 4 h, prior to reading at with a Fluostar OPTIMA (BMG LABTECH) plate-reader (fluorescence: Excitation 535 nm, Emission 590); wells with medium only and 1× resazurin were used as blanks.
Following transfection, the cells were collected from the 6-wells and aliquoted into 96-wells, just before ASO and overnight TLR stimulation (as above described). Similarly, the LL171 cells expressing and ISRE-Luc reporter were treated overnight.

Substance	IC50 (HEK-TLR7, oligo ~30-50 min before 1 μg/ml R848 overnight, read-out: IC50 (R848 sensing by TLR7)) [nM]	TLR7 400 nM (HEK-TLR7)	TLR7 2 uM (HEK-TLR7)	TLR7 100 nM (averaged NF-κB-Luciferase level relative to R848 condition)	TLR7 500 nM (averaged NF-κB-Luciferase level relative to R848 condition)
mG*mC*mG*mG*mU*A*T*C*C*A*T*G*T*C*C*mC*mA*mG*mG*mC (mG*mC*mG*mG*mU*dA*dT*dC*dC*dA*dT*dG*dT*dC*dC*mC*mA*mG*mG*mC; antisense) [C2-Mut1]	44	–	–	–	–
CGU (mC*mG*mU)	–	1.372	0.963	–	–
CUC (mC*mU*mC)	–	1.288	0.984	–	–
UUU (mU*mU*mU)	–	0.861	1.084	–	–
UAA (mU*mA*mA)	–	1.126	1.029	–	–
dC*dC*dC (CCC; listed as DNA, chemistry not fully specified)	–	1.196	0.993	–	–
dC*dC*dA (CCA; listed as DNA, chemistry not fully specified)	–	1.270	0.780	–	–
ACACTTCGTGGGGTCC (antisense; LNA-modified, pattern not given here) [HPRT LNA-665 V1]	–	–	–	0.548	0.086
GCU (mG*mC*mU)	–	1.339	0.852	–	–
TGTGATGGCCTCCCAT (antisense; LNA-modified, pattern not given here) [HPRT LNA-334 V1]	–	–	–	0.315	0.090
GGU (mG*mG*mU)	–	0.938	0.847	–	–
CUG (mC*mU*mG)	–	1.405	0.804	–	–
mUmGmA (mU*mG*mA) [UGA, 3-mer 2′OMe PS oligo]	–	1.126	0.831	–	–
CAACACTTCGTGGGGT (antisense; LNA-modified, pattern not given here) [HPRT LNA-667 V1]	–	–	–	0.663	0.476
dC*dA*dA (CAA; listed as DNA, chemistry not fully specified)	–	1.175	0.787	–	–
GTTCAGTCCTGTCCAT (antisense; LNA-modified, pattern not given here) [HPRT LNA-292 V1]	–	–	–	0.456	0.114
UAG (mU*mA*mG)	–	1.158	0.918	–	–
CCAAGATCAGCAGTCT (antisense; LNA-modified, pattern not given here) [CTNN2B-2341 LNA KL]	–	–	–	0.882	0.697
UGC (mU*mG*mC)	–	1.057	0.782	–	–
GATAGCACCTTCAGCA (antisense; LNA-modified, pattern not given here) [CTNN2B-1294 LNA KL]	–	–	–	0.434	0.049
dC*dG*dA (CGA; listed as DNA, chemistry not fully specified)	–	1.112	0.907	–	–
UAC (mU*mA*mC)	–	1.161	1.003	–	–
TTTTGGCTGGGATCAA (antisense; LNA-modified, pattern not given here) [CAMSAP1-4697 LNA KL]	–	–	–	0.564	0.305
GCCATCCACTTGATAG (antisense; LNA-modified, pattern not given here) [EGFR-2874 LNA V1]	–	–	–	0.671	0.123
GGCTGGAATCCGAGTT (antisense; LNA-modified, pattern not given here) [EGFR-4705 LNA KL]	–	–	–	0.417	0.041
